Experimental findings from ChEMBL document CHEMBL5390267, “Selective Activation of a TRPC6 Ion Channel Over TRPC3 by Metalated Type-B Polycyclic Polyprenylated Acylphloroglucinols” (J Med Chem, 2023) are described below.

For series [1], the system named is PC12. In words: Agonist activity at TRPC6 channel in rat PC12 cells assessed as induction of intracellular calcium level at 10 uM by FLIPR calcium 6 assay. Type of series: cell-based. To be noted: time 2.0 hrs. A general note: A change in cytosolic calcium serves as a functional read-out for many receptors and channels.
For series [2], the target named is T1, Short transient receptor potential channel 6 (Homo sapiens) (UniProt Q9Y210).
T1 sequence (whole entry): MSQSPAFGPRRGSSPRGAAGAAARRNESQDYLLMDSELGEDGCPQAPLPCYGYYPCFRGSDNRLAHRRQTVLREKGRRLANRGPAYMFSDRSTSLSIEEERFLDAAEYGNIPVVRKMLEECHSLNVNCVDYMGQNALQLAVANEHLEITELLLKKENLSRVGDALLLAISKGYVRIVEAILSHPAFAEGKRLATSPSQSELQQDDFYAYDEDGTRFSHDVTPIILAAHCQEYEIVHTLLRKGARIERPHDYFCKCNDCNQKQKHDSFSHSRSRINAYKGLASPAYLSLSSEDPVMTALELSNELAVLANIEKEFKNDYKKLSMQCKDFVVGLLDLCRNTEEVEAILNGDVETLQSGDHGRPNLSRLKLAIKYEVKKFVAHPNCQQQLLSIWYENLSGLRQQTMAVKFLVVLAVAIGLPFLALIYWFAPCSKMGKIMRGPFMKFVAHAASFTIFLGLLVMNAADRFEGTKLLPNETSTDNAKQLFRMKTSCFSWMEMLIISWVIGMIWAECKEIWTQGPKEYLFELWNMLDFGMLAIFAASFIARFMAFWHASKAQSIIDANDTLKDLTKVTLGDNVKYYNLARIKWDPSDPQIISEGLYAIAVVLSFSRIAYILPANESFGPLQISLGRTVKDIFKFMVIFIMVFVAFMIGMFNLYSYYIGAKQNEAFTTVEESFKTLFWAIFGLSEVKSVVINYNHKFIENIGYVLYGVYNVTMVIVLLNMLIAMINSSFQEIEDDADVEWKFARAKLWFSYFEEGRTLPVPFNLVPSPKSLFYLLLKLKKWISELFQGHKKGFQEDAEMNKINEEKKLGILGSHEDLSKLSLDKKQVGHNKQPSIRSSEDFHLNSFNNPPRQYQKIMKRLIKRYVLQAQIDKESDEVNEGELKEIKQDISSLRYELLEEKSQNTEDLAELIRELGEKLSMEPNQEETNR
Nature of the series: Agonist activity at […] TRPC6 channel in HEK293 cells assessed as intracellular calcium influx stimulation at 10 uM by Fura-2 AM staining based calcium influx assay. To be noted: filed as agonist. Type of series: cell-based.

A short description of series [3]: Kinetic solubility of compound in 1% DMSO/PBS incubated for 5 mins under shaking condition by turbidimetric method. It is filed as physicochemical. Conditions: read-out: Kinetic_solubility.
Series [4] addresses T1, Short transient receptor potential channel 6 (Homo sapiens). In words: Agonist activity at TRPC6 channel in HEK293 cells assessed as intracellular calcium influx stimulation at 1 to 10 uM by Fura-2 AM staining based calcium influx assay. It is filed as cell-based. Conditions: filed as agonist, dose 1-10 µM.
The nature of series [5]: Stability in CD-1 mouse plasma assessed as half life at 1 uM incubated for 15 mins by HPLC-MS/MS analysis. It is filed as ADME, cell-free.
Series [6] can be described thus: Metabolic stability in mouse liver microsomes assessed as half life at 1 uM incubated for 120 mins in presence of NADPH by HPLC-MS/MS analysis. Type of series: ADME, Microsome. Background: Microsomes from liver hold many membrane-bound enzymes, among them those of drug oxidation.
The nature of series [7]: Photostability of compound assessed as compound decomposition at 5 mg incubated for 1 week under natural sun light-irradiation and air. Type of series: physicochemical. Conditions: 168 h, time 1 weeks.
Series [8] can be described thus: Metabolic stability in mouse liver microsomes assessed as intrinsic clearance at 1 uM incubated for 120 mins in presence of NADPH by HPLC-MS/MS analysis. It is filed as ADME, Microsome. To be noted: read-out: CLH.
In series [9] the target is T2, Short transient receptor potential channel 3 (Homo sapiens) (UniProt Q13507).
T2 sequence (whole entry): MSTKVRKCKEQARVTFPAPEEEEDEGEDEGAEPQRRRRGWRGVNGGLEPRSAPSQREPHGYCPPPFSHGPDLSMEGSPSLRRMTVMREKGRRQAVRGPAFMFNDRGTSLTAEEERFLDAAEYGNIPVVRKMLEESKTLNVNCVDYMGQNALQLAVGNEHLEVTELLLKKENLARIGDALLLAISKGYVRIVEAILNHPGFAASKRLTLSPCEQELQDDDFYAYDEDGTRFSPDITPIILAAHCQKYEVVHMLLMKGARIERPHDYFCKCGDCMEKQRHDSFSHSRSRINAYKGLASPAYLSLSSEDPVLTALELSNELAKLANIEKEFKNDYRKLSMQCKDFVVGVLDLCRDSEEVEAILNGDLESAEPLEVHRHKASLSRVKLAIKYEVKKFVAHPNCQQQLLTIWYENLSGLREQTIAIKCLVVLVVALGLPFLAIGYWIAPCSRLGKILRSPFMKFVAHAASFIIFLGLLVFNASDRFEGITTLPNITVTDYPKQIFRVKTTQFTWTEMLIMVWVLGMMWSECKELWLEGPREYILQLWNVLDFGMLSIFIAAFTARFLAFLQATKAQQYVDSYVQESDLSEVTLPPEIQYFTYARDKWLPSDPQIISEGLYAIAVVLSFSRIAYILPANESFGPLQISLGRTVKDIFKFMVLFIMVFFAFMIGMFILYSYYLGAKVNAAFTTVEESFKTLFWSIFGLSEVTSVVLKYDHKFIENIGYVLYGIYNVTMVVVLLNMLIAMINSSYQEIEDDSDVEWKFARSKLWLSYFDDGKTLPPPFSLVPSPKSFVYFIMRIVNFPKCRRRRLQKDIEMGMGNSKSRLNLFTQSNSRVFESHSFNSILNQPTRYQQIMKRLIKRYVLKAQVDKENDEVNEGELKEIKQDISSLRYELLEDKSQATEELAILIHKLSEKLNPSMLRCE
Nature of the series: Agonist activity at […] TRPC3 channel in HEK293 cells assessed as intracellular calcium influx stimulation at 10 uM by Fura-2 AM staining based calcium influx assay. Type of series: cell-based. To be noted: filed as agonist.

The structures appear in SMILES notation. In brackets after ≈: the same amount, converted by molar mass. Activity calls are given as the source filed them. The rule behind the calls is not given here.

For the molecule `CC(C)=CC[C@H]1C[C@@]2(CC=C(C)C)C(=O)[C@](CC=C(C)C)(C(=O)C(C(=O)c3ccccc3)=C2O)C1(C)C`, in [1], the outcome was inactive.

For the molecule `CC(=O)C1=C(O)[C@@]2(CC=C(C)C)C[C@H](CC=C(C)C)C(C)(C)[C@@](CC=C(C)C)(C1=O)C2=O`, in [1], the result was inactive.

Take `CC(C)=CCC[C@]1(C)[C@@H](CC=C(C)C)C[C@]2(CC=C(C)C)C(=O)C(CC=C(C)C)=C(O)[C@@]1(C(=O)C(C)C)C2=O`: the result in [1] (filed as agonist) and in [2] was Active.

With `C=CC[C@@]12C[C@H](CC=C(C)C)C(C)(C)[C@@](CC=C)(C(=O)C(C(C)=O)=C1O)C2=O` [listing 1 of 2 here], the solubility kinetic at 5 min in series [3] worked out at 49.1 µM (≈ 18.9 µg/mL).

For `C=CC[C@@]12C[C@H](CC=C(C)C)C(C)(C)[C@@](CC=C)(C(=O)C(C(C)=O)=C1O)C2=O` [listing 2 of 2 here], the outcome in series [4], in series [1] (filed as agonist) and in series [2] was Active.

Turning to `C=CC[C@@]12C[C@H](CC=C(C)C)C(C)(C)[C@@](CC=C)(C(=O)C(C(C)=O)=C1[O-])C2=O.[Na+]`, the half-life (as a rule, how long it takes for the measured level to halve) at 1 µM was 2.57 h in [5] and 0.525 h in series [6]. The solubility kinetic at 5 min in series [3] was > 200 µM. The Stability entry in series [7] is reported as “Stable”. The microsomal CLint at 1 µM in [8] came out at 44.7 µL/min/mg.

Turning to `CCCCCCCC/C=C\CCCCCCCC(=O)OC[C@H](CO)OC(C)=O`, the result in [9] and in series [2] was Active.
